# Laboratory results: patent publication US20120202258A1, “LIGE-TYPE TRANSFORMANTS FOR BIOCONVERSION OF LIGNIN-DERIVED COMPOUNDS” (priority 2010, published 2012)
# B1: ligE1: N. aromaticivorans putative beta-etherase polypeptide, glutathione S-transferase-like protein, expressed in E. coli (protein)
# chain: MAANNTITFYDLALSTGATISPFVWATKYALKHKGFDLDVVPGGFTGILERTGGKTERLPAIVDDGEFVLDSWGIVEYLDAKYPDRPVLIPHESVAATLKALDNWFWNAAVGPWMFCFCQDYRDLSLPQDHEYVTHSREKMLGRKLEEVQAGREERLPKISAALEPLRAALAQHQWLGGSSPNYADYRIMGGILFTASVCKTPVLANDDPLRDWIERCLDLYGGLGRHPGLFPLFGLEQREGDPDLFNRAAGQGGIYKRNTGPESTRAETQRITEGMKK
# B2: LigF2: N. aromaticivorans putative beta-etherase polypeptide, glutathione S-transferase-like protein (protein)
# chain: MALKYYHAEPLANSLKSMVPLKEKGLAYESIYVDLHKFEQHQPWFTAINPEGQVPVLDHDGTIITHTTVINEYLEDAFPDAQPADAPLRPRDPVGAARMRYWNKFIDEHVMNYVSMHGWHRMVGVIARNIASGDFEKLLESIPLPDQRKKWATARSGFSEADLANATAKIEYALDKVEKQLGETKWLAGDTYTLADINFYSHCGAMVERMFPEMEVARRAPRLCEWRDRVAARPAVAEALKSEDRTAPGLRVWSGEVR
# B3: ABD26530.1: N. aromaticivorans putative beta-etherase polypeptide (protein)
# chain: MVIPLGEDNTIMLKLYSFGPAANSMKPLLTVFEKGLDVEKHRLDPAKFEHHTDWFKAINPRGQVPALVDGDKVVTESTVICEYLEDEYPTEVALRPADSFGKAQMRIWTKWVDEYFCWCVSTIGWHRYVGNMVKSLSDAEFEEKVKAIPVIEQQVKWRRAREGFPQDMLDEEMRKIAYSVRKLDDHLADHEWLVPGQYTLADICNFAIANGMQFGFAELVNKQDTPHLVRWIEQINERPAVKQMFAQVELEKLGPRE
# B4: ABD27309.1: N. aromaticivorans putative beta-etherase polypeptide (protein)
# chain: MDEVSLYHWEPNANSGKPMLALMEKGVPFSSHYIDMLQFDQHKPEYLAINPQGTIPAMTHNGQVLTESTAIMEYVNDRFDGPDLMPADAQDRWRVRWWMKFMDQWLGPSFSMIGWSVFVGPMVRQRDPAELAAAIDRIPLPERRTAWRKAINGDFSESEMAESRRRVGLGIAKLEEELGKRPYVGSNQYSLADINIFNSTYSLPISQPDLAGKDRTPNIMRWLKRVYTREAVKKTWAMGKTDLAHRYGLIMAEIEG
# B5: ligE: S. paucimobilis beta-etherase, positive control polypeptide (protein)
# chain: MARNNTITLYDLQLESGCTISPYVWRTKYALKHKGFDIDIVPGGFTGILERTGGRSERVPVIVDDGEWVLDSWVIAEYLDEKYPDRPMLFEGPTQKNLMKFLDNWLWSTAVGPWFRCYILDYHDLSLPQDRDYVRWSREQWFLGGQRLEDVQAGREDRLPLVPPTLEPFRRILAETKWLGGDQPNFADYSALAVFLWTASVARTPPLTEDDPLRDWLDRGFDLFDGLGRHPGMNPLFGLKLREGDPEPFVRQTGPAGAGGQALNKGPQTTKMPPRVAEKAD
# B6: LigG: S. paucimobilis glutathione-eliminating glutathione S transferase gene product (protein)
# chain: MSGASARSLGKGSAPPGPVPEGQIRVYSMRFCPFAQRTLMVLKAKGIRHEIININLKNKPEWFFEKNPFGLVPVLENTQGHLITESVITCEYLDEAYPEKKLFPDDPYEKACQKMTFELFSKVPSLVTSFIRAKRKEDHPGIKEELKKEFSKLEEAMANKRTAFFGGNSLSMIDYLIWPWFQRLEALELNECIDHTPKLKLWMATMQEDPVASSHFIDAKTYRDYLSLYLQDSPEACDYGL
# B7: LigF: S. paucimobilis beta-etherase, positive control polypeptide (protein)
# chain: MTLKLYSFGPGANSLKPLATLYEKGLEFEQVFVDPSKFEQHSDWFKKINPRGQVPALWHDGKVVTESTVICEYLEDVFPESGNSLRPADPFKRAEMRVWTKWVDEYFCWCVSTIGWAFGIKAIAQKMSDEEFEEHINKNVPIPEQQLKWRRARNGFPQEMLDEEFRKVGVSVARLEETLSKQDYLVDTGYSLADICNFAIANGLQRPGGFFGDYVNQEKTPGLCAWLDRINARPAIKEMFEKSKREDLLKRQNEKVA
# Test system: Escherichia coli
# Assay: not given
# Conditions: demonstrated; result in words; cited from earlier work
row,Molecule,antibacterial activity against Escherichia coli
1,O=Cc1ccccc1O [2-hydroxybenzaldehyde],antibacterial activity
2,COc1ccc(O)c(C=O)c1 [2-hydroxy-5-methoxybenzaldehyde],antibacterial activity
3,COc1cccc(C=O)c1O [2-hydroxy-3-methoxybenzaldehyde],antibacterial activity
4,"COc1cc(O)cc(OC)c1C=O [4-hydroxy-2,6-dimethoxybenzaldehyde]",antibacterial activity
5,"O=Cc1ccc(O)c(O)c1O [2,3,4-trihydroxybenzaldehyde]",antibacterial activity
6,"O=Cc1cccc(O)c1O [2,3-dihydroxybenzaldehyde]",antibacterial activity
7,"O=Cc1c(O)cc(O)cc1O [2,4,6-trihydroxybenzaldehyde]",antibacterial activity
8,"O=Cc1cc(O)ccc1O [2,5-dihydroxybenzaldehyde]",antibacterial activity
9,"O=Cc1ccc(O)cc1O [2,4-dihydroxybenzaldehyde]",antibacterial activity

# Same assay, conditions: known; result in words; cited from earlier work
row,Molecule,antimicrobial activity against Escherichia coli
1,COc1cc(C=O)cc(OC)c1O [syringaldehyde],antimicrobial activity
2,O=Cc1ccc(O)cc1 [4-hydroxybenzaldehyde],antimicrobial activity
3,O=Cc1ccc(CO)o1 [5-hydroxymethylfurfural],antimicrobial activity
4,COc1cc(C=O)ccc1O [vanillin],antimicrobial activity
5,O=Cc1ccco1 [furfural],antimicrobial activity

# Test system: Saccharomyces cerevisiae
# Assay: not given
# Conditions: result in words; cited from earlier work
row,Molecule,antifungal activities against the yeast Saccharomyces cerevisiae
1,COc1cc(C(=O)O)ccc1O [vanillic acid],significant antifungal activities
2,COc1ccc(C=O)cc1OC [Veratraldehyde],significant antifungal activities
3,O=C(O)/C=C/c1ccccc1O [o-coumaric acid],significant antifungal activities
4,O=C(O)C=Cc1ccccc1 [cinnamic acid],significant antifungal activities
5,COc1cc(CCC(C)=O)ccc1O [vanillylacetone],significant antifungal activities
6,O=C(O)/C=C/c1cccc(O)c1 [m-coumaric acid],significant antifungal activities
7,O=C(O)/C=C/c1ccc(O)cc1 [p-coumaric acid],significant antifungal activities

# Test system: not listed separately
# Assay: in vitro beta-etherase biochemical assay on fluorescent substrate MUAV (4MU fluorescence), clarified E. coli cell extracts
# Conditions: 0.1 mM MUAV substrate
# Text: The model substrate synthesis 150 for use in the biochemical screening for selective activity can be outsourced through a contract research organization (CRO). The enzyme discovery effort can initially be focused on identifying potential beta-etherase candidate genes identified through bioinformatic methods. […] The fluorescent substrate α-O-(β-methylumbelliferyl) acetovanillone (MUAV), for example, can be used in in vitro assays to identify beta-etherase function (Acme Biosciences, Mt. View, Calif.). The formation of 4 methylumbelliferone (4MU) upon hydrolysis of the aryl ether bond can be monitored by fluorescence, for example, at λex=365 nm and λem=450 nm (or 460 nm).
# The enzyme screening 155 is done to identify novel etherases 160. […] Expression of the beta-etherase genes can be done in 5 ml or 25 ml samples of the recombinant E. coli strains in LB medium using induction with IPTG. Following induction, and cell harvest, cell pellets can be be lysed using the BPER (Invitrogen) cell lysis system. […] The formation of 4 methylumbelliferone (4MU) upon hydrolysis of the aryl ether bond in MUAV can be monitored by fluorescence at λex=365 nm and λem=460 nm, and can provide quantitative measurement of beta-etherase function. Cell extracts of E. coli transformed with the S. paucimobilis ligE and ligF genes can be the assay positive controls. Test or unknown samples can include, for example, E. coli strains expressing putative beta-etherase genes from N. aromaticovorans.
# This example describes a method for gene expression in E. coli, as well as beta-etherase biochemical assays. Expression of known and putative beta-etherase genes was performed using 5 ml cultures of the recombinant E. coli strains described herein in Luria Broth medium by induction of gene expression using isopropylthiogalactoside (IPTG) to a final concentration of 0.1 mM. Following induction, and cell harvest, the cells were disrupted using either sonication or the BPER (Invitrogen) cell lysis system.
# In vitro reactions were performed in a total volume of 200 ul and contained: 25 mM TrisHCl pH 7.5; 0.5 mM dithiothreitol; 1 mM glutathione; 0.05 mM or 0.1 mM MUAV; 10 ul of clarified cell extract used to initiate the reactions. Following incubation for 2.5 hours at room temperature, a 50 ul sample of the reactions was terminated using 150 uL of 300 mM glycine/NaOH buffer pH 9. The formation of 4 methylumbelliferone (4MU) upon hydrolysis of the aryl ether bond was monitored by the increase in fluorescence at λex=360 nm and λem=450 nm using a Spectramax UV/visible/fluorescent spectrophotometer.
# The total protein concentrations of the cell lysates were determined using the BCA reagent system for protein quantification (Pierce).
row,Molecule,fold more efficient than S. paucimobilis ligE beta-etherase enzyme
1,B1,approximately 75 fold

# Same assay, conditions: MUAV substrate; result in words
row,Molecule,beta-etherase activity
1,B2,beta-etherase activity
2,B1,beta-etherase activity
3,B3,beta-etherase activity
4,B4,beta-etherase activity

# Test system: not given
# Assay: not given
# Conditions: FIG. 2B, S. paucimobilis LigDFEG gene cluster; result in words; cited from earlier work
row,Molecule,enzyme activity of gene product
1,LigD: S. paucimobilis C alpha-dehydrogenase gene product [reference compound],Cα-dehydrogenase activity
2,B5,β-etherase activity
3,B6,glutathione lyase activity
4,B7,β-etherase activity
